These results are taken from EP1921115B1, “Use of 3-hydroxy-cyclohex-2-enone azo based dyes in optical layers” (Clariant Finance (BVI) Limited, priority 2006, dated 2008).

Assay type in all cases: physicochemical
Data set [1] can be described thus: Solubility in 2,2,3,3 tetrafluoropropanol. The note with it: in 2,2,3,3 tetrafluoropropanol at 25 °C. The source says: The solubilities were differentiated into three groups: A Good solubility (> 20 g / L) B Medium solubility (>= 10 and <= 20 g / L) C Poor solubility (<10 g / L)
Data set [2] is described as follows: UV-vis spectra (λ max and ε). The conditions noted are these: dissolved in CH2Cl2, DMSO or in tfp. The procedure:
For UV-vis spectra, λ max and ε values of a compound are determined by using an UV-vis spectrophotometer, the compound was dissolved in CH2Cl2, DMSO or in tfp. The values are obtained by balancing the measurements performed on compound solutions at three different concentrations.

A short description of data set [3]: Thermal decomposition: decomposition point (DP). The conditions noted are these: sealed aluminum pan, 25 to 400°C, heating rate 10°C/min, nitrogen flow, single measurement. How it is done: For the determination of DP and HR, the compound is incorporated into a sealed aluminum pan. Analysis conditions are as following: Temperature range from 25 to 400°C, heating rate 10°C/min, nitrogen flow of 50 ml/min. Values are determined by single measurement.

`Cc1ccc(N=NC2=C(O)C(C#N)C(C)(C)CC2=O)c([N+](=O)[O-])c1` (centres unmarked) [compound of formula (13)]: the Solubility result in data set [1] is “C (Poor solubility (<10 g / L))”. Further, the “ε (at λ max)” value in data set [2] (Table A, azo ligands) came out at 52 L/g/cm. In data set [2], this compound showed a λ max of 442 nm. The DP in data set [3] was 270 °C.
In the case of `CCOC(=O)C1C(O)=C(N=Nc2ccc(OC)cc2[N+](=O)[O-])C(=O)CC1(C)C` (centres unmarked) [compound of formula (6)], in data set [1], the Solubility result is “B (Medium solubility (>= 10 and <= 20 g / L))”. Also, the “ε (at λ max)” value in data set [2] (Table A, azo ligands) was 56 L/g/cm. Moreover, the λ max in data set [2] was 448 nm. In addition, the DP in data set [3] came to 273 °C.
In the case of `CCOC(=O)C1C(O)=C(N=Nc2ccc(C(F)(F)F)cc2[N+](=O)[O-])C(=O)CC1(C)C` (centres unmarked) [compound of formula (7)], the Solubility entry in data set [1] is on record as “A (Good solubility (> 20 g / L))”. For the same compound, in data set [2] (Table A, azo ligands), the “ε (at λ max)” value is 32 L/g/cm. The same compound had a λ max in data set [2] of 399 nm. In addition, the DP in data set [3] is 276 °C.
For the compound `CC1(C)CC(=O)C(N=Nc2ccc(Cl)cc2[N+](=O)[O-])=C(O)C1C#N` (centres unmarked) [compound of formula (14)], in data set [1], the Solubility entry is given as “A (Good solubility (> 20 g / L))”. The “ε (at λ max)” value in data set [2] (Table A, azo ligands) stood at 42 L/g/cm. This compound returned a λ max in data set [2] of 437 nm. Further, the DP in data set [3] turned out to be 222 °C.
Take `CCOC(=O)C1C(O)=C(N=Nc2ccc([N+](=O)[O-])cc2Br)C(=O)CC1(C)C` (centres unmarked) [compound of formula (9)]: the Solubility result in data set [1] is “A (Good solubility (> 20 g / L))”. In addition, the “ε (at λ max)” value in data set [2] (Table A, azo ligands) came to 72 L/g/cm. This compound showed a λ max in data set [2] of 400 nm. The DP in data set [3] worked out at 285 °C.
On to `CCOC(=O)C1C(O)=C(N=Nc2c(C)cc(C)cc2C)C(=O)CC1(C)C` (centres unmarked) [compound of formula (10)], for which, in data set [1], the Solubility result was “A (Good solubility (> 20 g / L))”. Also, the “ε (at λ max)” value in data set [2] (Table A, azo ligands) came to 55 L/g/cm. Moreover, in data set [2], the λ max is 413 nm. In data set [3], this compound came in with a DP of 248 °C.
As to `CC1(C)CC(=O)C(N=Nc2cc([N+](=O)[O-])ccc2O)=C(O)C1C#N` (centres unmarked) [compound of formula (16)], the Solubility entry in data set [1] is “C (Poor solubility (<10 g / L))”. The “ε (at λ max)” value in data set [2] (Table A, azo ligands) came out at 17 L/g/cm. In data set [2], this compound yielded a λ max of 423 nm. Moreover, in data set [3], the DP was found to be 249 °C.
As to `CCOC(=O)C1C(O)=C(N=Nc2c(F)c(F)c(F)c(F)c2F)C(=O)CC1(C)C` (centres unmarked) [compound of formula (17)], in data set [1], the Solubility entry is listed as “A (Good solubility (> 20 g / L))”. Besides, the “ε (at λ max)” value in data set [2] (Table A, azo ligands) amounted to 29 L/g/cm. In data set [2], this compound came in with a λ max of 326 nm. The compound also came in with a DP in data set [3] of 157 °C.
The like results for `CCOC(=O)C1C(O)=C(N=Nc2ccc(Cl)cc2[N+](=O)[O-])C(=O)CC1(C)C` (centres unmarked) [compound of formula (3)] were, in that order, “A (Good solubility (> 20 g / L))”, 52 L/g/cm, 421 nm and 274 °C.
On to `CCOC(=O)C1C(O)=C(N=Nc2ccc(C)cc2[N+](=O)[O-])C(=O)CC1(C)C` (centres unmarked) [compound of formula (1)], for which the Solubility entry in data set [1] is “A (Good solubility (> 20 g / L))”. Moreover, the “ε (at λ max)” value in data set [2] (Table A, azo ligands) turned out to be 63 L/g/cm. Besides, in data set [2], the λ max stood at 427 nm. In data set [3], this compound yielded a DP of 282 °C.
Consider `COc1ccc(N=NC2=C(O)C(C#N)C(C)(C)CC2=O)c([N+](=O)[O-])c1` (centres unmarked) [compound of formula (15)], for which the Solubility entry in data set [1] was “C (Poor solubility (<10 g / L))”. Moreover, the “ε (at λ max)” value in data set [2] (Table A, azo ligands) came to 50 L/g/cm. Further, the λ max in data set [2] stood at 458 nm. In data set [3], this compound gave a DP of 154 °C.
Turning to `CCOC(=O)C1C([O][Ni][O]C2=C(N=Nc3ccc([N+](=O)[O-])cc3OC)C(=O)CC(C)(C)C2C(=O)OCC)=C(N=Nc2ccc([N+](=O)[O-])cc2OC)C(=O)CC1(C)C` (centres unmarked) [compound of formula (19)], the Solubility entry in data set [1] is reported as “A (Good solubility (> 20 g / L))”. Besides, in data set [2] (Table B, metal complexes), the “ε (at λ max)” value was found to be 67 L/g/cm. In data set [2], this compound came in with a λ max of 442 nm. This compound yielded a DP in data set [3] of 278 °C.
Regarding `CCOC(=O)C1C([O][Cu][O]C2=C(N=Nc3ccc([N+](=O)[O-])cc3OC)C(=O)CC(C)(C)C2C(=O)OCC)=C(N=Nc2ccc([N+](=O)[O-])cc2OC)C(=O)CC1(C)C` (centres unmarked) [compound of formula (18)], the Solubility result in data set [1] is “C (Poor solubility (<10 g / L))”. Also, the “ε (at λ max)” value in data set [2] (Table B, metal complexes) amounted to 50 L/g/cm. The λ max in data set [2] turned out to be 431 nm. The DP in data set [3] was 276 °C.
Turning to `CCOC(=O)C1C(O)=C(N=Nc2ccccc2[N+](=O)[O-])C(=O)CC1(C)C` (centres unmarked) [compound of formula (4)], the Solubility result in data set [1] was “B (Medium solubility (>= 10 and <= 20 g / L))”. Further, in data set [2] (Table A, azo ligands), the “ε (at λ max)” value turned out to be 52 L/g/cm. The same compound had a λ max in data set [2] of 424 nm. This compound gave a DP in data set [3] of 238 °C.
As for `CCOC(=O)C1C(O)=C(N=Nc2c(Br)cc([N+](=O)[O-])cc2C#N)C(=O)CC1(C)C` (centres unmarked) [compound of formula (8)], the Solubility entry in data set [1] was “B (Medium solubility (>= 10 and <= 20 g / L))”. For the same compound, the “ε (at λ max)” value in data set [2] (Table A, azo ligands) came out at 55 L/g/cm. The compound also gave a λ max in data set [2] of 396 nm. The compound further showed a DP in data set [3] of 226 °C.
Consider `CCOC(=O)C1C(O)=C(N=Nc2ccc([N+](=O)[O-])cc2OC)C(=O)CC1(C)C` (centres unmarked) [compound of formula (11)], for which, in data set [1], the Solubility entry is “A (Good solubility (> 20 g / L))”. The “ε (at λ max)” value in data set [2] (Table A, azo ligands) came to 44 L/g/cm. The same compound came in with a λ max in data set [2] of 432 nm. The compound further yielded a DP in data set [3] of 288 °C.
With `CCOC(=O)C1C(O)=C(N=Nc2ccc(S(C)(=O)=O)cc2[N+](=O)[O-])C(=O)CC1(C)C` (centres unmarked) [compound of formula (5)], the Solubility result in data set [1] is on record as “A (Good solubility (> 20 g / L))”. Also, the “ε (at λ max)” value in data set [2] (Table A, azo ligands) stood at 19 L/g/cm. Moreover, the λ max in data set [2] is reported as 384 nm. The same compound displayed a DP in data set [3] of 200 °C.
In the case of `CCOC(=O)C1C([O][Cu][O]C2=C(N=Nc3cc(OC)c(S(N)(=O)=O)cc3OC)C(=O)CC(C)(C)C2C(=O)OCC)=C(N=Nc2cc(OC)c(S(N)(=O)=O)cc2OC)C(=O)CC1(C)C` (centres unmarked) [compound of formula (20)], the Solubility entry in data set [1] was “B (Medium solubility (>= 10 and <= 20 g / L))”. Also, the “ε (at λ max)” value in data set [2] (Table B, metal complexes) turned out to be 42 L/g/cm. In data set [2], this compound registered a λ max of 441 nm. This compound came in with a DP in data set [3] of 314 °C.
Regarding `CCOC(=O)C1C(O)=C(N=Nc2cc(OC)c(S(N)(=O)=O)cc2OC)C(=O)CC1(C)C` (centres unmarked) [compound of formula (12)], the Solubility entry in data set [1] is “A (Good solubility (> 20 g / L))”. In addition, the “ε (at λ max)” value in data set [2] (Table A, azo ligands) was determined as 25 L/g/cm. Moreover, in data set [2], the λ max is 438 nm. In data set [3], this compound displayed a DP of 279 °C.
The like results for `CCOC(=O)C1C(O)=C(N=Nc2cc([N+](=O)[O-])ccc2O)C(=O)CC1(C)C` (centres unmarked) [compound of formula (2)] were, in that order, “A (Good solubility (> 20 g / L))”, 52 L/g/cm, 411 nm and 253 °C.
